Tests used:
[1] = compound: CC(=O)c1c(C)c2cnc(Nc3ccc(N4CCNCC4)cn3)nc2n(C2CCCC2)c1=O; assay: increase in dead-cell fraction, 72 h; higher = more death;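 note: breast cancer cell lines in 384-well plates, stained with Hoechst plus LIVE/DEAD far red dye and imaged, cells above an LDR intensity threshold counted dead, Hoechst-negative corpses included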
[2] = compound: CCN1CCN(Cc2ccc(Nc3ncc(F)c(-c4cc(F)c5nc(C)n(C(C)C)c5c4)n3)nc2)CC1; assay: as above
LEE011/Ribociclib [3] = compound: T1, CN(C)C(=O)c1cc2cnc(Nc3ccc(N4CCNCC4)cn3)nc2n1C1CCCC1 [LEE011/Ribociclib]; assay: as above
Flavopiridol [4] = compound: T2, CN1CC[C@H](c2c(O)cc(O)c3c(=O)cc(-c4ccccc4Cl)oc23)[C@H](O)C1 [Flavopiridol]; assay: as above
BSJ-03-123 = compound: CC(=O)c1c(C)c2cnc(Nc3ccc(N4CCN(CCOCCOCCOCCNC(=O)COc5cccc6c5C(=O)N(C5CCC(=O)NC5=O)C6=O)CC4)cn3)nc2n(C2CCCC2)c1=O [BSJ-03-123]; assay: GR value, 72 h; higher = faster growth (1 = untreated, <0 = killing);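 note: breast cancer and non-malignant breast epithelial lines, nine half-log doses, viable cells counted by Hoechst and LIVE/DEAD dye imaging versus time-zero plates and DMSO controls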
[5] = compound: CC(=O)c1c(C)c2cnc(Nc3ccc(N4CCNCC4)cn3)nc2n(C2CCCC2)c1=O; assay: as above
[6] = compound: CCN1CCN(Cc2ccc(Nc3ncc(F)c(-c4cc(F)c5nc(C)n(C(C)C)c5c4)n3)nc2)CC1; assay: as above
Neratinib/HKI272 = compound: CCOc1cc2ncc(C#N)c(Nc3ccc(OCc4ccccn4)c(Cl)c3)c2cc1NC(=O)/C=C/CN(C)C [Neratinib/HKI272]; assay: as above
[7] = compound: CCc1cnn2c(NCc3ccc[n+]([O-])c3)cc(N3CCCC[C@H]3CCO)nc12; assay: as above
LEE011/Ribociclib [8] = compound: T1, LEE011/Ribociclib; assay: as above
THZ1 = compound: CN(C)C/C=C/C(=O)Nc1ccc(C(=O)Nc2cccc(Nc3ncc(Cl)c(-c4c[nH]c5ccccc45)n3)c2)cc1 [THZ1]; assay: as above
Flavopiridol [9] = compound: T2, Flavopiridol; assay: as above

## T47D
[1]; 0.0003162 µM
  increase in dead-cell fraction: 0.0016
[1]; 0.001 µM
  increase in dead-cell fraction: -0.001
[1]; 0.003162 µM
  increase in dead-cell fraction: 0.0022
[1]; 0.01 µM
  increase in dead-cell fraction: 0.0006
[1]; 0.03162 µM
  increase in dead-cell fraction: 0.0078
[1]; 0.1 µM
  increase in dead-cell fraction: 0.0116
[1]; 0.3162 µM
  increase in dead-cell fraction: 0.0158
[1]; 1 µM
  increase in dead-cell fraction: 0.0154
[1]; 3.162 µM
  increase in dead-cell fraction: 0.0097
[2]; 0.001 µM
  increase in dead-cell fraction: -0.0007
[2]; 0.003162 µM
  increase in dead-cell fraction: 0.0004
[2]; 0.01 µM
  increase in dead-cell fraction: 0.0119
[2]; 0.03162 µM
  increase in dead-cell fraction: 0.0119
[2]; 0.1 µM
  increase in dead-cell fraction: 0.0081
[2]; 0.3162 µM
  increase in dead-cell fraction: 0.0178
[2]; 1 µM
  increase in dead-cell fraction: 0.0167
[2]; 3.162 µM
  increase in dead-cell fraction: 0.0642
[2]; 10 µM
  increase in dead-cell fraction: 0.104
LEE011/Ribociclib [3]; 0.001 µM
  increase in dead-cell fraction: 0.0085
LEE011/Ribociclib [3]; 0.003162 µM
  increase in dead-cell fraction: 0.0069
LEE011/Ribociclib [3]; 0.01 µM
  increase in dead-cell fraction: 0.0061
LEE011/Ribociclib [3]; 0.03162 µM
  increase in dead-cell fraction: 0.0139
LEE011/Ribociclib [3]; 0.1 µM
  increase in dead-cell fraction: 0.0374
LEE011/Ribociclib [3]; 0.3162 µM
  increase in dead-cell fraction: 0.0392
LEE011/Ribociclib [3]; 1 µM
  increase in dead-cell fraction: 0.0267
LEE011/Ribociclib [3]; 3.162 µM
  increase in dead-cell fraction: 0.0405
LEE011/Ribociclib [3]; 10 µM
  increase in dead-cell fraction: 0.0242
Flavopiridol [4]; 0.0001 µM
  increase in dead-cell fraction: 0.0101
Flavopiridol [4]; 0.0003162 µM
  increase in dead-cell fraction: -0.0037
Flavopiridol [4]; 0.001 µM
  increase in dead-cell fraction: 0.0027
Flavopiridol [4]; 0.003162 µM
  increase in dead-cell fraction: 0.0005
Flavopiridol [4]; 0.01 µM
  increase in dead-cell fraction: 0.0011
Flavopiridol [4]; 0.03162 µM
  increase in dead-cell fraction: -0.0028
Flavopiridol [4]; 0.1 µM
  increase in dead-cell fraction: 0.0027
Flavopiridol [4]; 0.3162 µM
  increase in dead-cell fraction: 0.0159
Flavopiridol [4]; 1 µM
  increase in dead-cell fraction: 0.0323
BSJ-03-123; 0.001 µM
  GR value: 0.505 GR
BSJ-03-123; 0.003162 µM
  GR value: 0.473 GR
BSJ-03-123; 0.01 µM
  GR value: 0.28 GR
BSJ-03-123; 0.03162 µM
  GR value: 0.231 GR
BSJ-03-123; 0.1 µM
  GR value: 0.228 GR
BSJ-03-123; 0.3162 µM
  GR value: 0.203 GR
BSJ-03-123; 1 µM
  GR value: 0.115 GR
BSJ-03-123; 3.162 µM
  GR value: 0.165 GR
BSJ-03-123; 10 µM
  GR value: 0.118 GR
[5]; 0.0003162 µM
  GR value: 1.07 GR
[5]; 0.001 µM
  GR value: 1.08 GR
[5]; 0.003162 µM
  GR value: 1.04 GR
[5]; 0.01 µM
  GR value: 0.782 GR
[5]; 0.03162 µM
  GR value: 0.478 GR
[5]; 0.1 µM
  GR value: 0.203 GR
[5]; 0.3162 µM
  GR value: 0.177 GR
[5]; 1 µM
  GR value: 0.122 GR
[5]; 3.162 µM
  GR value: 0.132 GR
[6]; 0.001 µM
  GR value: 0.86 GR
[6]; 0.003162 µM
  GR value: 0.604 GR
[6]; 0.01 µM
  GR value: 0.244 GR
[6]; 0.03162 µM
  GR value: 0.0789 GR
[6]; 0.1 µM
  GR value: 0.166 GR
[6]; 0.3162 µM
  GR value: 0.117 GR
[6]; 1 µM
  GR value: 0.171 GR
[6]; 3.162 µM
  GR value: 0.0597 GR
[6]; 10 µM
  GR value: -0.03 GR
Neratinib/HKI272; 0.0003162 µM
  GR value: 1.02 GR
Neratinib/HKI272; 0.001 µM
  GR value: 1.01 GR
Neratinib/HKI272; 0.003162 µM
  GR value: 0.94 GR
Neratinib/HKI272; 0.01 µM
  GR value: 0.899 GR
Neratinib/HKI272; 0.03162 µM
  GR value: 0.749 GR
Neratinib/HKI272; 0.1 µM
  GR value: 0.65 GR
Neratinib/HKI272; 0.3162 µM
  GR value: 0.584 GR
Neratinib/HKI272; 1 µM
  GR value: 0.382 GR
Neratinib/HKI272; 3.162 µM
  GR value: 0.215 GR
[7]; 0.0001 µM
  GR value: 0.999 GR
[7]; 0.0003162 µM
  GR value: 1.01 GR
[7]; 0.001 µM
  GR value: 1.08 GR
[7]; 0.003162 µM
  GR value: 1.12 GR
[7]; 0.01 µM
  GR value: 1.05 GR
[7]; 0.03162 µM
  GR value: -0.0667 GR
[7]; 0.1 µM
  GR value: -0.128 GR
[7]; 0.3162 µM
  GR value: -0.19 GR
[7]; 1 µM
  GR value: -0.22 GR
LEE011/Ribociclib [8]; 0.001 µM
  GR value: 0.614 GR
LEE011/Ribociclib [8]; 0.003162 µM
  GR value: 0.624 GR
LEE011/Ribociclib [8]; 0.01 µM
  GR value: 0.407 GR
LEE011/Ribociclib [8]; 0.03162 µM
  GR value: 0.413 GR
LEE011/Ribociclib [8]; 0.1 µM
  GR value: 0.297 GR
LEE011/Ribociclib [8]; 0.3162 µM
  GR value: 0.244 GR
LEE011/Ribociclib [8]; 1 µM
  GR value: 0.174 GR
LEE011/Ribociclib [8]; 3.162 µM
  GR value: 0.151 GR
LEE011/Ribociclib [8]; 10 µM
  GR value: 0.163 GR
THZ1; 0.0001 µM
  GR value: 0.967 GR
THZ1; 0.0003162 µM
  GR value: 1.08 GR
THZ1; 0.001 µM
  GR value: 0.922 GR
THZ1; 0.003162 µM
  GR value: 1.02 GR
THZ1; 0.01 µM
  GR value: 0.841 GR
THZ1; 0.03162 µM
  GR value: 0.474 GR
THZ1; 0.1 µM
  GR value: -0.116 GR
THZ1; 0.3162 µM
  GR value: -0.142 GR
THZ1; 1 µM
  GR value: -0.269 GR
Flavopiridol [9]; 0.0001 µM
  GR value: 0.983 GR
Flavopiridol [9]; 0.0003162 µM
  GR value: 1.05 GR
Flavopiridol [9]; 0.001 µM
  GR value: 0.945 GR
Flavopiridol [9]; 0.003162 µM
  GR value: 1.05 GR
Flavopiridol [9]; 0.01 µM
  GR value: 0.897 GR
Flavopiridol [9]; 0.03162 µM
  GR value: 0.808 GR
Flavopiridol [9]; 0.1 µM
  GR value: 0.548 GR
Flavopiridol [9]; 0.3162 µM
  GR value: 0.148 GR
Flavopiridol [9]; 1 µM
  GR value: -0.153 GR
